pIC50: −log10 of the molar value.
Legend:
[1] = test system: apolipoprotein B (Apo B) secretion, Hep G2 cells; experiment: inhibition of the cellular secretion of Apo B (Hep G2 cells, ELISA); assay type: cell-based; conditions: Homo sapiens, HepG2, 24 h, secreted Apo B by ELISA
Method: The inhibition of the cellular secretion of Apo B is determined as follows:
Hep G2 cells are maintained in T-75 culture flasks (Corning) in Dulbecco's modified Eagles Medium (DMEM; Gibco-BRL) supplemented with 10% fetal calf serum Gibco-BRL) in a humidified atmosphere containing 5% carbon dioxide until they are confluent. For testing compounds, Hep G2 cells from the T-75 maintenance flasks are harvested and seeded in 96-well culture plates (Corning) and are grown for 72 hours (approximately 80% confluent). Test compound is dissolved at 1 mg/ml (w/v;1-5 mM) in dimethyl sulfoxide DMSO; Sigma) as stock solution. Prior to use, the stock solution of compound is diluted to 133 μM with DMSO and diluted further with growth medium (DMEM containing 10% fetal calf serum) to obtain 1 μM of compound in 100 μL of growth medium. 100 μL of growth medium containing the test compound is added to separate wells of a 96-well culture plate containing Hep G2 cells. For testing dose response of compound, a stock solution of test compound in DMSO is made at 665 μM and various dilutions from this solution are made in growth medium to obtain range of concentration of compound from 0.01 μM to 5 μM in 100 μL of growth medium. 100 μL of the growth medium containing different concentrations of test compound is added to separate wells containing Hep G2 cells. Twenty-four hours later, growth medium is collected and assayed by specific ELISA for apolipoprotein B (Apo B). At the same time Hep G2 cells from wells are assayed for protein (BioRad; cat. # 500-0006) and/or cell viability (Promega; CellTiter 96 Aqueous, cat. # G3581). Inhibitors are identified as compounds that decrease Apo B secretion into the medium without decreasing the total cellular protein and/or cell viability. […] Absorbance of each well is read at 405 nm using a Beckman Biomek workstation. […]

[2] = in vivo cholesterol lowering effect; conditions: 10 mg/kg p.o.
Text: The in vivo serum cholesterol lowering effect of the compounds of the invention can be determined by measuring their effect on cholesterol levels in mice, rats or dogs according to methodology well known in the art, e.g., in normolipidemic rats.

[3] = biological target: T1, rat MTP (microsomal triglyceride transfer protein) (Rattus norvegicus, UniProt D4A1W8); experiment: inhibition of MTP (triglyceride transfer from donor vesicles to acceptor vesicles); assay type: biochemical; conditions: soluble rat MTP, 37° C., 45 min, radiolabeled triglyceride transfer
T1 construct: homogenate (120 g/210 mL) of rat liver; from tissue; host or cells: rat liver microsomes, deoxycholate-released soluble protein
T1 sequence (D4A1W8 22-896): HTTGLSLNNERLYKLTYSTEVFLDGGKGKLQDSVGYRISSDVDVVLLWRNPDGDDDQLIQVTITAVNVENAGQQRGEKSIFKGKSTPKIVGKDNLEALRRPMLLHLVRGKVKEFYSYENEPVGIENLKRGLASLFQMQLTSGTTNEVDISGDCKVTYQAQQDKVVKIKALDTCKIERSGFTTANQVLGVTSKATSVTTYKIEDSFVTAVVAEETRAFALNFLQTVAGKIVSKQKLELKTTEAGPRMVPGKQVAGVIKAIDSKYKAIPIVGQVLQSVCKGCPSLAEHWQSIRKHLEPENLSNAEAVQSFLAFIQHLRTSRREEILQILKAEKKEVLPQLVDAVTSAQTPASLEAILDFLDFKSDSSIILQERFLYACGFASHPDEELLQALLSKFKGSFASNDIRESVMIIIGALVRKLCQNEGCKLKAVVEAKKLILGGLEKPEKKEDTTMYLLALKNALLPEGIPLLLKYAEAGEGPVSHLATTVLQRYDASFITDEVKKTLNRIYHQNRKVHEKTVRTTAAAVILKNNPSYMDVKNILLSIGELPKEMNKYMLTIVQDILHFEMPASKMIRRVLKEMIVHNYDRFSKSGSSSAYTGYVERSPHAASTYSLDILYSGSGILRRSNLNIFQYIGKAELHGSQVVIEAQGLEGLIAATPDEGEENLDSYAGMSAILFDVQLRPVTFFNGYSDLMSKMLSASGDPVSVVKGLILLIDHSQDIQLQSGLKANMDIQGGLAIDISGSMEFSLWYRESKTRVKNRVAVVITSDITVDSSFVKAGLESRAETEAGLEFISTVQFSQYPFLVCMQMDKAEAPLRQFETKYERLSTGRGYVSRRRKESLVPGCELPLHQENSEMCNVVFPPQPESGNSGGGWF
T1 sequence (P04785 20-509 partner): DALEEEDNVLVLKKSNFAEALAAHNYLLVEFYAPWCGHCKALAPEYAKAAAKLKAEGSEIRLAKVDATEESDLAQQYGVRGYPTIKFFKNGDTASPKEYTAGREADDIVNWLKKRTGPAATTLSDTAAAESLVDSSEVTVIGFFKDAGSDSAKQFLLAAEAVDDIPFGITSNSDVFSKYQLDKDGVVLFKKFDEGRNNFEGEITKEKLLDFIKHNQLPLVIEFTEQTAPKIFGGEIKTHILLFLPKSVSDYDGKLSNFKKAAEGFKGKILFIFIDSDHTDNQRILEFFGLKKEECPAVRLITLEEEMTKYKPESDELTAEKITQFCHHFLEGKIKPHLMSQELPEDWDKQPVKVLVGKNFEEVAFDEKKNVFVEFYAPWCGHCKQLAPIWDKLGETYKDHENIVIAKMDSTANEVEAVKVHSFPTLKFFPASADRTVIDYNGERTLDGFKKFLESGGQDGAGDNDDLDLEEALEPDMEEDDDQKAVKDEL
Method: The inhibition of MTP is measured as follows:
Inhibition of the lipid transfer activity of MTP can be quantitated by measuring the inhibition of transfer of radiolabeled triglyceride from donor vesicles to acceptor vesicles in presence of soluble rat MTP. The procedure for preparing MTP is based on the method of Wetterau and Zilversmit (Biochim. Biophys. Acta (1986) 875:610). Briefly rats are decapitated under ether anesthesia. The liver is placed in ice cold sucrose buffer (contains 0.25M sucrose, 50 mM Tris Hcl, 1 mM EDTA, 0.02% sodium azide, pH 7.4) rinsed several times with the sucrose buffer.
All subsequent steps are performed on ice. A 57% homogenate (120 g/210 mL) of rat liver in 0.25 M sucrose buffer is prepared by using a Potter-Elvehjem homogenizer. The homogenate is then centrifuged at 4° C. for 30 min at 13,000×g to remove large cellular organells. The supernatant is then centrifuged for 90 min at 105,000×g to pellet the microsomes. The pellet is resuspended in 10 mM Tris-HCl buffer pH 8.6. and centrifuged for 90 min at 105,000×g. The washed pellet is then resuspended in 1 mM Tris buffer (pH 8.6) and centrifuged for 2 hrs. […] The protein content is measured using the Sigma Lowry micro total protein method and reagents (Sigma Cat. # 690A). […]
MTP activity is measured using a MTP transfer assay. […]

[4] = in vivo triglyceride lowering effect; conditions: 10 mg/kg p.o.
Text: The in vivo serum triglyceride lowering effect of the compounds of the invention can be determined by measuring their effect on triglyceride levels in mice, rats or dogs according to methodology well known in the art, e.g., in a model of pre-established hypertriglyceridemia in fructose fed rats or in normolipidemic rats.

SMILES | pIC50 [1] | lowers plasma cholesterol [2] | pIC50 [3] | lowers plasma triglycerides [4]
CS(=O)(=O)N[C@@H]1Cc2ccc(NC(=O)c3cc(F)ccc3-c3ccc(C(F)(F)F)cc3)cc2C1 [13(al)] | ~8.52 |  |  | 
COC(=O)N[C@@H]1Cc2ccc(NC(=O)c3cccc(C)c3-c3ccc(C(F)(F)F)cc3)cc2C1 [13(i), (R)-6-methyl-4'-trifluoromethylbiphenyl-2-carboxylic acid (2-methoxycarbonylaminoindan-5-yl)-amide] | ~9.15 | lowers both plasma triglycerides and cholesterol | ~7.15 | lowers both plasma triglycerides and cholesterol
Cc1cccc(C(=O)Nc2ccc3c(c2)C[C@@H](NS(C)(=O)=O)C3)c1-c1ccc(C(F)(F)F)cc1 [Example 13b] | ~8.74 |  | ~7.22 | 

Source: patent US6197798A, “Amino-benzocycloalkane derivatives” (Novartis AG, priority 1999, dated 2001)
